Measured values published in ChEMBL document CHEMBL1201862, “PubChem BioAssay data set” (2004).
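Test compounds were applied to cells in 96-well plates for 48 hours at 5 doses. GI50 is the concentration that inhibits growth by half.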 Activity calls are given as the source filed them. Cut-off read from the data, not from the text of the source: active = GI50 up to about 1.1 µM and inactive = higher.

Assays:
Assay in all cases: NCI anticancer screen, dose series, 48 h
[1] = tested on: 786-0
[2] = tested on: ACHN
[3] = tested on: CAKI-1
[4] = tested on: CCRF-CEM
[5] = tested on: EKVX
[6] = tested on: HCT-15
[7] = tested on: MDA-MB-435
[8] = tested on: MOLT-4
[9] = tested on: NCI-H226
[10] = tested on: NCI-H23
[11] = tested on: NCI-H522
[12] = tested on: OVCAR-3
[13] = tested on: RXF 393
[14] = tested on: SF-295
[15] = tested on: SF-539
[16] = tested on: SK-MEL-5
[17] = tested on: TK-10
[18] = tested on: UACC-257
[19] = tested on: UACC-62
[20] = tested on: UO-31

Structure (SMILES) | GI50 [1] | GI50 [2] | GI50 [3] | GI50 [4] | GI50 [5] | GI50 [6] [µM] | GI50 [7] | GI50 [8] | GI50 [9] | GI50 [10] | GI50 [11] | GI50 [12] | GI50 [13] | GI50 [14] | GI50 [15] | GI50 [16] | GI50 [17] | GI50 [18] | GI50 [19] | GI50 [20]
Cc1nc2c(n1-c1ccc(Br)cc1)C(=O)c1ccccc1C2=O | 5.16 µM (inactive) | 9.06 µM (inactive) | 12.5 µM (inactive) | 3.16 µM (inactive) | > 54.6 µM (inactive) | 1.04 | 6.73 µM (inactive) | 0.989 µM (active) | 51.6 µM (inactive) | 34 µM (inactive) | 10.4 µM (inactive) | 12 µM (inactive) | 14.8 µM (inactive) | 5.45 µM (inactive) | 7.66 µM (inactive) | 12.6 µM (inactive) | 34.4 µM (inactive) | 19.5 µM (inactive) | 2.82 µM (inactive) | 7.76 µM (inactive)
N#C/C(=C\c1ccccc1)c1nc(-c2cc3ccccc3oc2=O)cs1 | 53.5 µM (inactive) | 38.6 µM (inactive) | > 100 µM (inactive) | > 100 µM (inactive) | 71.3 µM (inactive) | > 100 | > 100 µM (inactive) | > 100 µM (inactive) | > 100 µM (inactive) |  | > 100 µM (inactive) |  | > 100 µM (inactive) | > 100 µM (inactive) | 58.5 µM (inactive) | > 100 µM (inactive) | 45.2 µM (inactive) | > 100 µM (inactive) | 43.1 µM (inactive) | 93.1 µM (inactive)
COC1(C)/C=N/CC(C)(C)NC(=O)C(C)(OC)/C=N/CC(C)(C)NC1=O (stereo not given) | > 10 µM (inactive) | > 10 µM (inactive) | > 10 µM (inactive) | > 10 µM (inactive) | > 10 µM (inactive) | > 10 | > 10 µM (inactive) | > 10 µM (inactive) |  | > 10 µM (inactive) | 3.53 µM (inactive) |  | > 10 µM (inactive) | > 10 µM (inactive) | > 10 µM (inactive) | > 10 µM (inactive) | > 10 µM (inactive) | > 10 µM (inactive) | > 10 µM (inactive) | 
C/C(=N\NC(=O)/C(C#N)=C\c1ccc(N(CCC#N)CCC#N)cc1)c1ccccc1 | > 10 µM (inactive) | > 10 µM (inactive) | > 10 µM (inactive) |  | > 10 µM (inactive) | > 10 | > 10 µM (inactive) | > 10 µM (inactive) | > 10 µM (inactive) | > 10 µM (inactive) | > 10 µM (inactive) |  | > 10 µM (inactive) | > 10 µM (inactive) | > 10 µM (inactive) | > 10 µM (inactive) | > 10 µM (inactive) | > 10 µM (inactive) | > 10 µM (inactive) | > 10 µM (inactive)
CC1=NN(c2cccc(Cl)c2)C2(SCC(=O)N2c2nc3ccccc3s2)/C1=C\c1ccccc1O (stereo not given) | 16.3 µM (inactive) | 15.5 µM (inactive) | 21.4 µM (inactive) | 15.1 µM (inactive) | 30.5 µM (inactive) | 14.6 | 21.3 µM (inactive) | 11.9 µM (inactive) | 34.3 µM (inactive) | 16 µM (inactive) | 19.8 µM (inactive) | 15.8 µM (inactive) | 17 µM (inactive) | 25.8 µM (inactive) | 33.5 µM (inactive) | 13.4 µM (inactive) | 42.4 µM (inactive) | 31.4 µM (inactive) |  | 15.7 µM (inactive)
C=CCON(C(=O)OC(C)(C)C)C(C)(C)C | > 100 µM (inactive) | > 100 µM (inactive) | > 100 µM (inactive) | > 100 µM (inactive) | > 100 µM (inactive) | > 100 | > 100 µM (inactive) | > 100 µM (inactive) | > 100 µM (inactive) | > 100 µM (inactive) | > 100 µM (inactive) | > 100 µM (inactive) | > 100 µM (inactive) | > 100 µM (inactive) |  | > 100 µM (inactive) | > 100 µM (inactive) | > 100 µM (inactive) | > 100 µM (inactive) | > 100 µM (inactive)
CCOC(=O)c1c(-c2ccccc2)nc2c(OC)nccn12 | > 100 µM (inactive) |  | > 100 µM (inactive) | > 100 µM (inactive) | > 100 µM (inactive) | > 100 | > 100 µM (inactive) | 14.5 µM (inactive) | > 100 µM (inactive) | > 100 µM (inactive) | > 100 µM (inactive) | > 100 µM (inactive) | 15.4 µM (inactive) | > 100 µM (inactive) | > 100 µM (inactive) | 61.1 µM (inactive) | 60.5 µM (inactive) | > 100 µM (inactive) | > 100 µM (inactive) | 20.5 µM (inactive)
